Reference: patent US20080021217A1, “HETEROCYCLIC INHIBITORS OF RHO KINASE” (priority 2006, published 2008)

Columns and labels:
[1] = biological target: T1, recombinant N-terminal GST-tagged human Rho kinase 1 (ROCK1, amino acids 1-535) (Homo sapiens, UniProt Q13464); assay: In vitro Rho kinase assay (luciferase-based ATP consumption), ROCK1; type: biochemical
T1 construct: ROCK1, amino acids 1-535, Invitrogen Inc., cat. #PV-3691; GST (N); purchased Invitrogen Inc. PV-3691
Method: (§1) Rho kinase biochemical assays described below depend on firefly luciferase-based, indirect measurement of total ATP consumption by the kinase following incubation with substrate and ATP. 25 μl of Rho kinase assay buffer (20 mM Tris-HCL [pH 7.5], 1 mM MgCl2, 0.4 mM CaCl2, 0.15 mM EGTA, 0.1 mg/ml bovine serum albumin) containing 0.82 μg/ml of recombinant N-terminal GST-tagged human Rho kinase 1 (ROCK1, amino acids 1-535, Invitrogen Inc., cat. #PV-3691) or recombinant N-terminal GST-tagged human Rho kinase 2 (ROCK2, amino acids 1-552, Invitrogen Inc., cat #PV3759), 100 μg/ml S6 peptide substrate (related to amino acids 218-249 of the human 40S ribosomal protein S6, and suitable for ROCK1 or ROCK2, e.g. Upstate/Millipore Inc., cat #12-420), and 3 µM ATP are dispensed to wells of a 384 multi-well opaque plate. The plate is centrifuged for 30 seconds at approximately 200×g. 240 nl of test compound in DMSO is dispensed to each well by passive pin transfer. The lag phase of this in vitro kinase reaction permits addition of compounds soon after the reaction initiates. The reaction is allowed to incubate at 30° C. for 2 hours. The assay plates are sealed and maintained in a humidified environment. After 2 hours, 25 μl of easyLite protein kinase assay reagent (Perkin-Elmer, Inc.) is dispensed. After an additional 10 minute incubation at room temperature (about 22° C.), luminescence activity is measured on a Molecular Devices Analyst multi-mode plate reader or other suitable plate reader. Kinase inhibition results in less ATP consumption, and therefore increased luminescence signal. Negative control activity is measured with DMSO lacking any test compound. The positive control is 2-methyl-1-(4-methylisoquinolin-5-ylsulfonyl)perhydro-1,4-diazepine hydrochloride (aka H-1152P, HCl salt). Efficacy is measured as a percentage of positive control activity. […] In some cases, kinase reactions and compound testing are performed in 1536 multi-well plates under similar conditions, with assay volumes appropriately scaled. The designated NT means the cited example was not tested.

[2] = biological target: T2, recombinant N-terminal GST-tagged human Rho kinase 2 (ROCK2, amino acids 1-552) (Homo sapiens, UniProt O75116); assay: In vitro Rho kinase assay (luciferase-based ATP consumption), ROCK2; type: biochemical
T2 construct: ROCK2, amino acids 1-552, Invitrogen Inc., cat #PV3759; GST (N); purchased Invitrogen Inc. PV3759
Method: as §1

T1 sequence (Q13464 1-535): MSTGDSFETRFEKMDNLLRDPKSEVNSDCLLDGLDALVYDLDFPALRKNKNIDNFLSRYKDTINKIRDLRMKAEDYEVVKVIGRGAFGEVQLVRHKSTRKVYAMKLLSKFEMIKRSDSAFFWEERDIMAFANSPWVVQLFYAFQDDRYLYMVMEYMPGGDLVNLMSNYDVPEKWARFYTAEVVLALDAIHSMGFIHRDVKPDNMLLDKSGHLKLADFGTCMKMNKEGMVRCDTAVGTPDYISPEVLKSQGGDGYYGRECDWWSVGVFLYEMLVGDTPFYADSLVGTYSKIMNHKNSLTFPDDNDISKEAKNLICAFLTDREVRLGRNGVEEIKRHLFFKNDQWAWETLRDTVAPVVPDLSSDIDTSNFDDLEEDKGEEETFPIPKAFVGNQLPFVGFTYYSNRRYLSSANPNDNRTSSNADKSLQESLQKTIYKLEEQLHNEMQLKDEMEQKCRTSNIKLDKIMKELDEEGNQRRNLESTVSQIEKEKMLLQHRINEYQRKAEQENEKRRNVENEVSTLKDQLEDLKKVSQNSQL
T2 sequence (O75116 1-552): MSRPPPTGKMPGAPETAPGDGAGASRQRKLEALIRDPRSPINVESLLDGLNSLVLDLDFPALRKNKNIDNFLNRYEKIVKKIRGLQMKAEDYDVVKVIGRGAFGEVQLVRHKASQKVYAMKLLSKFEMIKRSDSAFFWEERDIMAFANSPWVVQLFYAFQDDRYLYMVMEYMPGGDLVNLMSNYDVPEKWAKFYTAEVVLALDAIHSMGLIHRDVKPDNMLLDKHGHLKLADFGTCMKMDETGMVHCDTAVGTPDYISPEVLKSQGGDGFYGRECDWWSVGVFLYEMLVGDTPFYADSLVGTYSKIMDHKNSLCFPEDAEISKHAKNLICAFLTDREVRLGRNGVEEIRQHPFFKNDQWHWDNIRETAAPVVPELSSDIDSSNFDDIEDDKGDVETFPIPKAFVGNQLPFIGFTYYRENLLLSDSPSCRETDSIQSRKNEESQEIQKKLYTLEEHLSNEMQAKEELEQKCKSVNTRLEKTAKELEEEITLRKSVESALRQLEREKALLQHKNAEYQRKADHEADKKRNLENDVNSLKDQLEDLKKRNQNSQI

| SMILES | IC50 [1] [µM] | IC50 [2] [µM] |
| --- | --- | --- |
| COc1cccc(O)c1C(=O)NCc1nc(-c2ccncc2)n[nH]1 [Example 23, 2-hydroxy-6-methoxy-N-((3-(pyridin-4-yl)-1H-1,2,4-triazol-5-yl)methyl)benzamide] | < 5 | < 5 |
| O=C(CCc1nc(-c2ccncc2)n[nH]1)c1ccc(O)cc1 [Example 63, 1-(4-hydroxyphenyl)-3-(3-(pyridin-4-yl)-1H-1,2,4-triazol-5-yl)propan-1-one] | < 5 | < 5 |
| Cc1cccc(C(=O)NCc2nc(-c3c[nH]c4ncccc34)n[nH]2)c1O [Example 71, N-((3-(1H-pyrrolo[2,3-b]pyridin-3-yl)-1H-1,2,4-triazol-5-yl)methyl)-2-hydroxy-3-methylbenzamide] | < 5 | > 5 |
| CC(NC(=O)c1ccc(O)cc1O)c1nc(-c2ccncc2)n[nH]1 (stereo not shown) [Example 66, 2,4-Dihydroxy-N-(1-(3-(pyridin-4-yl)-1H-1,2,4-triazol-5-yl)ethyl)benzamide] | < 5 | < 5 |
| CC(C)(C)C(=O)Oc1ccc(C(=O)NCc2nc(-c3ccncc3)n[nH]2)c(OC(=O)C(C)(C)C)c1 [Example 37, 4-((3-(Pyridin-4-yl)-1H-1,2,4-triazol-5-yl)methylcarbamoyl)-1,3-phenylene bis(2,2-dimethylpropanoate)] | > 5 | > 5 |
| O=C(c1cccs1)N1CCCC1c1nc(-c2ccncc2)n[nH]1 (stereo not shown) [Example 67, (2-(3-(pyridin-4-yl)-1H-1,2,4-triazol-5-yl)pyrrolidin-1-yl) (thiophen-2-yl)methanone] | > 5 | > 5 |
| Cc1c(O)ccc(C(=O)NCc2nc(-c3ccncc3)n[nH]2)c1O [Example 46, 2,4-Dihydroxy-3-methyl-N-((3-(pyridin-4-yl)-1H-1,2,4-triazol-5-yl)methyl)benzamide] | < 5 | < 5 |
| O=C(NCc1nc(-c2ccncc2)n[nH]1)c1ccc(CO)cc1 [Example 51, 4-(Hydroxymethyl)-N-((3-(pyridin-4-yl)-1H-1,2,4-triazol-5-yl)methyl)benzamide] | < 5 | < 5 |
| O=C(NCc1nc(-c2ccncc2)n[nH]1)c1cccc2cc[nH]c12 [Example 42, N-((3-(Pyridin-4-yl)-1H-1,2,4-triazol-5-yl)methyl)-1H-indole-7-carboxamide] | < 5 | < 5 |
| Clc1ccc(SCc2nc(-c3ccncc3)n[nH]2)cc1 [Example 80] | < 5 | < 5 |
| COc1ccc(C(=O)NCc2nc(-c3ccncc3)n[nH]2)cc1C [Example 40, 4-Methoxy-3-methyl-N-((3-(pyridin-4-yl)-1H-1,2,4-triazol-5-yl)methyl)benzamide] | > 5 | > 5 |
| O=C(NCc1nnc(-c2ccnc3[nH]ccc23)o1)c1ccc(O)cc1O [Example 76, N-((5-(1H-Pyrrolo[2,3-b]pyridin-4-yl)-1,3,4-oxadiazol-2-yl)methyl)-2,4-dihydroxybenzamide] | < 5 | < 5 |
| COc1ccc(NC(=O)NCc2nc(-c3ccncc3)n[nH]2)c(OC)c1 [Example 34, 1-(2,4-Dimethoxyphenyl)-3-((3-(pyridin-4-yl)-1H-1,2,4-triazol-5-yl)methyl)urea] |  | > 5 |
| NC1CCN(C(=O)Cc2nc(-c3ccncc3)n[nH]2)C1 (stereo not shown) [Example 61, 1-(3-Aminopyrrolidin-1-yl)-2-(3-(pyridin-4-yl)-1H-1,2,4-triazol-5-yl)ethanone] |  | > 5 |
| CC(C)(C)OC(=O)NC1CCN(C(=O)Cc2nc(-c3ccncc3)n[nH]2)C1 (stereo not shown) [Example 60, tert-Butyl 1-(2-(3-(pyridin-4-yl)-1H-1,2,4-triazol-5-yl)acetyl)pyrrolidin-3-ylcarbamate] |  | > 5 |
| O=C(Nc1cccc2c(-c3ccncc3)n[nH]c12)c1cccs1 [Example 68, N-(3-(Pyridin-4-yl)-1H-indazol-7-yl)thiophene-2-carboxamide] |  | > 5 |
